Each compound was assayed on High Cholesterol Fed Rats (assay: HDL Cholesterol Assay in High Cholesterol Fed Rats). Conditions: Rattus norvegicus, 168 h, oral once a day over the final 7 days of a 14-day high cholesterol diet, HDL increase relative to the vehicle, read-out: Serum HDL cholesterol levels (% of increase) at 30 mg/kg.
Assay type: in vivo, Male Sprague-Dawley rats
Experimental: HDL Cholesterol Assay in High Cholesterol Fed Rats
Male Sprague-Dawley rats (BW: 100-120 g) were fed a high cholesterol diet (1.25% cholesterol, 0.5% cholic acid and 10% coconut oil) for 14 days. The animals were orally dosed with test compounds suspended to 0.5% methylcellulose solution once a day over the final 7 days. Typical doses of test compounds were 1-30 mg/kg/day.
After 7 days of treatment, serum HDL cholesterol concentration was determined from blood obtained by tail bleeds. HDL cholesterol determination was performed on a Hitachi 7170 automatic analyzer.
Serum HDL cholesterol level (% of increase) refers to the rate of HDL increase relative to the vehicle and was calculated as follows: […]

Structure (SMILES)	change in vivo at 30 mg/kg [%]
O=C(O)COc1ccc(Sc2ccc(CNc3ccc(C(F)(F)F)cc3)cc2Cl)c2c1CCCC2 [Compound 22, (4-{2-chloro-4-[(4-trifluoromethyl-phenylamino)-methyl]-phenylsulfanyl}-5,6,7,8-tetrahydro-naphthalen-1-yloxy)-acetic acid]	≤ 100
Cc1cc(COc2ccc(C(F)(F)F)cc2)ccc1Sc1ccc(OCC(=O)O)cc1C [Compound 11]	> 100
Cc1cc(Sc2ccc(OCc3ccc(C(F)(F)F)cc3)cc2)ccc1OCC(=O)O [Compound 8]	> 100
Cc1cc(Sc2ccc(OCc3ccc(C(F)(F)F)cc3)c(C)c2)ccc1OCC(=O)O [Compound 1, {2-methyl-4-[3-methyl-4-(4-trifluoromethyl-benzyloxy)-phenylsulfanyl]-phenoxy}-acetic acid]	> 100
Cc1cc(Sc2ccc(CNc3ccc(C(F)(F)F)cc3)cc2C)c(C)cc1OCC(=O)O [Compound 21, 2,5-dimethyl-4-[[2-methyl-4-[(4-trifluoromethyl-phenylamino)methyl]phenyl]sulfanyl]phenoxy-acetic acid]	> 100
Cc1cc(Sc2ccc(COc3ccc(C(F)(F)F)cc3)cc2)ccc1OCC(=O)O [Compound 7, 4-[[4-[(4-trifluoromethylphenoxy)methyl]phenyl]sulfanyl]-2-methylphenoxy-acetic acid]	≤ 100
Cc1cc(S(=O)(=O)c2ccc(OCc3ccc(C(F)(F)F)cc3)cc2C)ccc1OCC(=O)O [Compound 5, 4-[[2-methyl-4-(4-trifluoromethyl-benzyloxy)phenyl]sulfonyl]-2-methylphenoxy-acetic acid]	≤ 100
Cc1cc(Sc2ccc(COc3ccc(C(F)(F)F)cc3)cc2Cl)ccc1OCC(=O)O [Compound 10, 4-[[2-chloro-4-[(4-trifluoromethylphenoxy)methyl]phenyl]sulfanyl]-2-methylphenoxy-acetic acid]	≤ 100
Cc1cc(Sc2ccc(OCC(=O)O)c3ccccc23)ccc1OCc1ccc(C(F)(F)F)cc1 [Compound 9]	≤ 100
CCCc1cc(Sc2ccc(OCc3ccc(C(F)(F)F)cc3)c(C)c2)ccc1OCC(=O)O [Compound 4, 4-[[3-methyl-4-(4-trifluoromethyl-benzyloxy)phenyl]sulfanyl]-2-propylphenoxy-acetic acid]	> 100

Source: US7645779B2, “Linked biaryl compounds” (Amgen Inc., priority 2001, dated 2010)
